Key:
[1] = molecular target: T1, Amine oxidase [flavin-containing] B (Homo sapiens, UniProt P27338); experiment: Inhibition of human recombinant MAOB expressed in BTI cells; assay type: cell-based
T1 sequence (P27338 whole entry): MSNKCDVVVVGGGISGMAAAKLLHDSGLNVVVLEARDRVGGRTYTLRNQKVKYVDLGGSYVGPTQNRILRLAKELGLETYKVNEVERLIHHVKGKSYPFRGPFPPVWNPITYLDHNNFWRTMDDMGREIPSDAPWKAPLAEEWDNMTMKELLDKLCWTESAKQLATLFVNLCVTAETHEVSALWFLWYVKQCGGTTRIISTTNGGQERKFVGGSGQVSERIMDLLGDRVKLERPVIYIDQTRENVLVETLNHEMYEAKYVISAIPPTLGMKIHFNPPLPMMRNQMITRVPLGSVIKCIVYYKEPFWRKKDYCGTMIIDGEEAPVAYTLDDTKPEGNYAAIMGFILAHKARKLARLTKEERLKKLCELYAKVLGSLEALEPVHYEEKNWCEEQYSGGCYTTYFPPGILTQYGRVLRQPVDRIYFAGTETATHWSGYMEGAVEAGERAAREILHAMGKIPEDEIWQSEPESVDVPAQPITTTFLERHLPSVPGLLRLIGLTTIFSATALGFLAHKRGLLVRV

Homo sapiens = organism: Homo sapiens; experiment: Selectivity index, ratio of IC50 for human recombinant MAOA to IC50 for human recombinant MAOB
[2] = molecular target: T2, Amine oxidase [flavin-containing] A (Homo sapiens, UniProt P21397); experiment: Inhibition of human recombinant MAOA expressed in BTI cells at 100 uM; assay type: cell-based
T2 sequence (P21397 whole entry): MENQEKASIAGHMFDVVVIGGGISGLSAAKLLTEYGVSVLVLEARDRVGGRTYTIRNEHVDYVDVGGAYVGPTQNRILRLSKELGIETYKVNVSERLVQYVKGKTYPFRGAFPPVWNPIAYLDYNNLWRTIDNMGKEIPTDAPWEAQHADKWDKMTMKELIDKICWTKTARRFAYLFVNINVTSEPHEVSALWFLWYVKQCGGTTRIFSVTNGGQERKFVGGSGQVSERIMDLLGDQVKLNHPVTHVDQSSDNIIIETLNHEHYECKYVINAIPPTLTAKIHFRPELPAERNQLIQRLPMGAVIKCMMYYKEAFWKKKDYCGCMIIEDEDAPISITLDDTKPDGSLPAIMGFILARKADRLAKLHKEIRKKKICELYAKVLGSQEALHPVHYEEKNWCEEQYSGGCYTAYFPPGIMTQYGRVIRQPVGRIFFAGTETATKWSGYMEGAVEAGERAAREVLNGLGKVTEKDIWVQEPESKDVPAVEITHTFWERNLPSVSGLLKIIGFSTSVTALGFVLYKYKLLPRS

[3] = molecular target: T1, Amine oxidase [flavin-containing] B; experiment: Inhibition of human recombinant MAOB expressed in BTI cells at 100 uM; assay type: cell-based

Row | IC50 [1] [pM] | Ratio IC50 (Homo sapiens) | inhibition (INH) [2] | IC50 [3] | Compound
1 | 803 | > 125000 | Not Active |  | COc1cccc(-c2cc3cc(C)ccc3oc2=O)c1
2 |  |  | Not Active | Not Active | COc1ccccc1-c1cc2cc(C)ccc2oc1=O
3 |  | > 7660 | Not Active |  | COc1ccc(-c2cc3cc(C)ccc3oc2=O)cc1
4 |  |  | Not Active |  | Cc1ccc2oc(=O)c(-c3ccc(O)cc3)cc2c1

Source: ChEMBL document CHEMBL1155294, “Synthesis and evaluation of 6-methyl-3-phenylcoumarins as potent and selective MAO-B inhibitors” (Bioorg Med Chem Lett, 2009)
